Laboratory results taken from patent publication US20190060371A1, “METHODS FOR CONTROLLED PROLIFERATION OF VESTIBULAR STEM CELLS / GENERATING INNER EAR HAIR CELLS USING WNT AND TGFBETA-INHIBITION” (Frequency Therapeutics, Inc., priority 2016, published 2019).
Entries after “also recorded” stand apart in the source; their conditions may differ.

Assays:
[1] = test system: supporting cell/stem cell; test: Expansion of Sox2 and Sox9 positive cells from vestibular organs in 3D Matrigel culture; format: cell-based, neonatal mice; conditions: for colony size compared to Wnt agonism alone (FIG. 5): TGF-beta inhibitor added to CHIR99021 in a background of GF; for cell growth when added to Wnt agonism (C) (total cells, FIG. 2): added to GF+C (CHIR99021), D10
Description: Isolation of stem cells from the inner ear: All animal studies were conducted under an approved institutional protocol according to National Institutes of Health guidelines. For experiments with neonatal mice (postnatal days 1-3), the vestibular organs were dissected in HBSS. The vestibular organs were then treated with TrypLE (Life Technologies) for 15-20 minutes at […]. Single cells obtained by mechanical trituration were filtered (40 μm) and suspended in Matrigel (Corning) for 3D culture. Cells were cultured in a 1:1 mixture of DMEM and F12, supplemented with Glutamax (GIBCO), N2, B27 (Invitrogen), EGF (50 ng/mL; Chemicon), bFGF (50 ng/mL; Chemicon), IGF1 (50 ng/mL; Chemicon) and a composition comprising the following agents: CHIR99021 (a Wnt activator), 616452 (a TGF-beta inhibitor), Noggin (a BMP4 inhibitor), VPA (HDAC inhibitor), and combinations there. Media were changed every other day. Total cells were quantified after 10 days (D10) in culture in multiple conditions. (i) GF; ([…]6); wherein On D10, cell colonies were dissociated into single cells using TrypLE (Gibco). The cells were then stained with propidium iodide (PI) and analyzed using a flow cytometer expression. The number of cells were quantified. […] Also on D10, cells were stained with Sox2 (data not shown), as well as Sox9, Rhodamine Phalloidin (stains F-actin), and DAPI (nuclear stain) (see FIG. 3) to assess the identity of the cell populations. Colonies were visualized using confocal microscopy. Sox2 and Sox9 are stem cell markers in the balance organs.

progenitor colonies = test: Differentiation of Sox2 and Sox9 progenitor cell colonies into hair cells; format: cell-based, neonatal mice; conditions: gamma secretase inhibition; confocal images
Description: Isolation of stem cells from the inner ear: All animal studies were conducted under an approved institutional protocol according to National Institutes of Health guidelines. For experiments with neonatal mice (postnatal days 1-3), the vestibular organs were dissected in HBSS. The vestibular organs were then treated with TrypLE (Life Technologies) for 15-20 minutes at […]. Single cells obtained by mechanical trituration were filtered (40 μm) and suspended in Matrigel (Corning) for 3D culture.
Differentiation of Sox2 and Sox9 Progenitor Cells Stem cell colonies were differentiated in a 1:1 mixture of DMEM and F12, supplemented with Glutamax (GIBCO), N2, B27 (Invitrogen), with the addition of molecules that drive differentiation, or after removal of growth factors without the addition of molecules that drive differentiation. Small molecules were added to the culture to test their effect on differentiation.
Indicative of hair cells, the cells express Myo VIIa (green) and have actin hair bundles (red).

Compound: Cc1cccc(-c2nn(C(=S)Nc3ccccc3)cc2-c2ccnc3ccccc23)n1 [Compound A-83-01, 3-(6-Methylpyridin-2-yl)-4-(4-quinolyl)-1-phenylthiocarbamoyl-1H-pyrazole]
- colony size compared to Wnt agonism alone (FIG. 5) [1]: larger colonies
- colony size compared to Wnt agonism alone (FIG. 5) ([1]; listed as A 83-01): larger supporting cell/stem cell colonies

Compound: NC(=O)c1ccc(-c2nc(-c3ccc4c(c3)OCO4)c(-c3ccccn3)[nH]2)cc1 [SB-431542, 4-[4-(1,3-Benzodioxol-5-yl)-5-(2-pyridinyl)-1H-imidazol-2-yl]-benzamide]
- colony size compared to Wnt agonism alone (FIG. 5) [1]: larger supporting cell/stem cell colonies

Compound: CCCC(CCC)C(=O)O [VPA, valproic acid]
- cell growth when added to Wnt agonism (C) (total cells, FIG. 2) ([1]; flow cytometer): inhibited cell growth

Compound: C[C@H](NC(=O)[C@@H](O)c1cc(F)cc(F)c1)C(=O)N[C@@H]1C(=O)N(C)c2ccccc2-c2ccccc21 [LY411575]
- conversion of colonies into hair cells (Myosin VIIA, actin hair bundles; FIG. 4) (progenitor colonies): differentiated into high purity populations of hair cells; also recorded: converted into high purity hair cell populations

Compound: Cc1c[nH]c(-c2cnc(NCCNc3ccc(C#N)cn3)nc2-c2ccc(Cl)cc2Cl)n1 [CHIR99021]
- supporting cell/stem cell growth (total cells, FIG. 2) ([1]; added to GF (EGF, FGF, IGF), 10 days (D10), flow cytometer): promoted supporting cell/stem cell growth
- supporting cell/stem cell growth and colony formation (FIG. 5) ([1]; in a background of GF): promoted supporting cell/stem cell growth and colony formation

Compound: Cc1cccc(-c2n[nH]cc2-c2ccc3ncccc3n2)n1 [Compound 616452, 2-(3-(6-Methylpyridin-2-yl)-1H-pyrazol-4-yl)-1,5-naphthyridine]
- cell growth when added to Wnt agonism (C) (total cells, FIG. 2) ([1]; flow cytometer): improved stem cell growth
